Source: patent US6649172B2, “Amphipathic aldehydes and their uses as adjuvants and immunoeffectors” (Corixa Corporation, priority 2000, dated 2003)

Assays:
[1] = test system: recombinant hepatitis B surface antigen (rHBsAg); assay: Serum antibody titers to rHBsAg by ELISA after vaccination (Example 7); assay type: in vivo, BALB/c mice
Procedure: For the evaluation of antibody responses, […] by vaginal wash and individually tested for HBsAg-specific antibody activity by enzyme-linked immunosorbent assay (ELISA). The endpoint antibody titers of each mouse are evaluated as total IgG, IgG1, IgG2a, IgG2b and IgA specific for rHBsAg.
Compound III, isotucaresol, was evaluated for adjuvant activity with a model hepatitis B vaccine. III, was prepared as an aqueous formulation in PBS and admixed with recombinant hepatitis B surface antigen (rHBsAg) (Rhein Biotech, Düisseldorf, Germany) with or without the AGP adjuvant 99 (2-[(R)-3-tetradecanoyloxytetradecanoylamino]ethyl 2-Deoxy-4-O-phosphono-3-O-[(R)-3-tetradecanoyloxytetradecanoyl]-2-[(R)-3-tetradecanoyloxytetradecanoylamino]-β-D-glucopyranoside Triethylammonium Salt). Mice were administered the vaccines on days 0 and 21 by subcutaneous (s.c.) injection of vaccine containing 1 μg rHBsAg±1000 μg III±5 μg 99. The antigen-specific immune response to rHBsAg was evaluated by measurement of serum antibody and cytotoxic T lymphocytes (CTL).

[2] = test system: transfected P815 cell line (P815S); assay: CTL activity, four hour 51Cr-release assay with spleen cells of vaccinated mice (Example 7); assay type: in vivo, BALB/c mice; settings: for Percent Specific Cell Lysis (50:1): 50:1 effector:target ratio, P815S targets, spleen cells 26 days after secondary vaccination, s.c. days 0 and 21, 1 μg rHBsAg ± 1000 μg III ± 5 μg 99
Procedure: Fourteen days after the second injection single cell suspensions are prepared from splenic lymphocytes of 3 mice per group. The spleen cells (75×10^6) are subsequently incubated at 37° C. in 10 ml RP10-SC media containing 50 nM of an L^d-restricted HBV CTL epitope ([…]) for 4 days. Stimulated effector cells are harvested, resuspended to 5×10^6 […] and serially diluted (in triplicate) in a volume of 100 μl RP10-SC/well of a 96 well microtiter plate followed by the addition of […] of RP10-SC containing 1×10^4 51Cr labeled P815S target cells (transfected P815 cells (H-2^d) expressing the hepatitis B S-antigen). Plates are centrifuged for 5 min at 400×g and placed in a 37° C. CO2 incubator for 4 h. Percent specific cytotoxicity is then determined.
(§1) Spleen cells were collected from donor mice 26 days after the secondary vaccination and evaluated for CTL activity. rHBsAg directed specific lysis was assessed in a standard four hour ^51Cr-release assay and by measurement of CD8+, IFNγ+ using flow cytometry.

CD8+, IFNγ+ cells [3] = assay: CD8+, IFNγ+ lymphocytes by flow cytometry, spleen cells of vaccinated mice (Example 7); note: key: N: 1:5000-1:1000; 1N: 1:999-1:750; 2N: 1:749-1:500; 3N: 1:499-1:250; 4N: 1:249-1:200; 5N: 1:199-1:100; assay type: in vivo, BALB/c mice; settings: spleen cells 26 days after secondary vaccination, 75 nM CTL epitope peptide, six-hour incubation; s.c. days 0 and 21, 1 μg rHBsAg ± 1000 μg III ± 5 μg 99
Procedure: as §1

[4] = test system: recombinant hepatitis B surface antigen (rHBsAg); assay: Serum antibody titers to rHBsAg by ELISA after vaccination (Example 8); assay type: in vivo, BALB/c mice; settings: for adjuvant activity: serum antibody production (summary in words): rHBsAg vaccine, s.c. days 0 and 14, mice
Procedure: Compounds 40, 42, and 44, were evaluated for adjuvant activity with a model hepatitis B vaccine. These compounds were prepared as aqueous formulations in PBS and admixed with recombinant hepatitis B surface antigen (rHBsAg) with or without the AGP adjuvant 99. Compound 99 was solubilized in an aqueous formulation containing dipalmitoylphosphatidyl choline in water. Mice were administered the vaccines on days 0 and 14 by subcutaneous (s.c.) injection. The antigen-specific immune response to rHBsAg was evaluated by measurement of serum antibody and cytotoxic T lymphocytes (CTL). The results shown in Table 3 confirm the adjuvant activity of compounds of 40, 42, and 44.

CD8+, IFNγ+ cells [5] = assay: CD8+, IFNγ+ lymphocytes by flow cytometry, spleen cells of vaccinated mice (Example 8); for CTL Ratio of CD8+, IFNγ+ Lymphocytes: key: N: 1:5000-1:1000; 1N: 1:999-1:750; 2N: 1:749-1:500; 3N: 1:499-1:250; 4N: 1:249-1:200; 5N: 1:199-1:100; assay type: in vivo, BALB/c mice; settings: for CTL Ratio of CD8+, IFNγ+ Lymphocytes: female BALB/c mice, s.c. days 0 and 14, spleen cells 11 days after secondary vaccination; for CTL response to the hepatitis vaccine antigen (summary in words): rHBsAg vaccine, s.c. days 0 and 14, mice, CD8+, IFNγ+ flow cytometry
Procedure: Spleen cells were collected from donor mice 11 days after the secondary vaccination and evaluated for CTL activity. The rHBsAg directed CTL was assessed by measurement of CD8+, IFNγ+ using flow cytometry.

[6] = test system: sheep red blood cells (SRBC); settings: cited from earlier work
[7] = female BALB/c mice, s.c. days 0 and 21, 1 μg rHBsAg ± 1000 μg III ± 5 μg 99, serum 21 days post-secondary vaccination, ELISA
[8] = adjuvant dose 5 μg with rHBsAg, female BALB/c mice, s.c. days 0 and 14, serum 11 days post-secondary vaccination, ELISA
[9] = adjuvant dose 250 μg with rHBsAg, female BALB/c mice, s.c. days 0 and 14, serum 11 days post-secondary vaccination, ELISA
[10] = adjuvant dose 250 μg with rHBsAg
[11] = adjuvant dose 500 μg with rHBsAg
[12] = adjuvant dose 1000 μg with rHBsAg
[13] = 1 μg rHBsAg + 1000 μg III + 5 μg 99, s.c. days 0 and 21, mice

Row | Compound | Gross Geometric Mean Serum Titers IgG1 [1, 7] | Percent Specific Cell Lysis (50:1) [2] | Lymphocytes CD8+, IFNγ+ (ratio of CD8+, IFNγ+ cells to total CD8+ cells) (CD8+, IFNγ+ cells [3]) | Gross Geometric Serum Titers IgG1 [4, 9] | adjuvant activity: serum antibody production (summary in words) [4] | CTL Ratio of CD8+, IFNγ+ Lymphocytes (CD8+, IFNγ+ cells [5]; [10]) | CTL Ratio of CD8+, IFNγ+ Lymphocytes (CD8+, IFNγ+ cells [5]; [11]) | CTL Ratio of CD8+, IFNγ+ Lymphocytes (CD8+, IFNγ+ cells [5]; [12]) | CTL response to the hepatitis vaccine antigen (summary in words) (CD8+, IFNγ+ cells [5]) | melting point | other results
1 | 2-[(R)-3-tetradecanoyloxytetradecanoylamino]ethyl 2-Deoxy-4-O-phosphono-3-O-[(R)-3-tetradecanoyloxytetradecanoyl]-2-[(R)-3-tetradecanoyloxytetradecanoylamino]-β-D-glucopyranoside triethylammonium salt [Compound 99, reference compound] | 5,000X | 5+ (“5+” is 41-50 Percent Specific Cell Lysis) | 3N | – | – | – | – | – | – | – | Gross Geometric Mean Serum Titers IgG2a [1, 7]: 5,000X; Gross Geometric Serum Titers IGG [4, 8]: 5,000X; Gross Geometric Serum Titers IgG2a [4, 8]: 5,000X; CTL Ratio of CD8+, IFNγ+ Lymphocytes (CD8+, IFNγ+ cells [5]; adjuvant dose 5 μg with rHBsAg): 4N
2 | COC(=O)c1ccc(COc2ccc(O)c(C=O)c2)cc1 [Compound 40, methyl 4-(3-formyl-4-hydroxyphenoxymethyl)benzoate] | – | – | – | 1,000X | enhanced serum antibody production | 3N | 2N | 5N | enhance the CTL response | 132 to 134 °C | Gross Geometric Serum Titers IgG1 ([4]; adjuvant dose 500 μg with rHBsAg, female BALB/c mice, s.c. days 0 and 14, serum 11 days post-secondary vaccination, ELISA): 5,000X; Gross Geometric Serum Titers IgG1 ([4]; adjuvant dose 1000 μg with rHBsAg, female BALB/c mice, s.c. days 0 and 14, serum 11 days post-secondary vaccination, ELISA): 5,000X
3 | O=Cc1cc(OCc2ccc(C(=O)O)cc2)ccc1OCC(=O)O [Compound 42, 4-[(4-carboxymethoxy-3-formyl-phenoxy)methyl]benzoic acid] | – | – | – | 1,000X | enhanced serum antibody production | 5N | 3N | 2N | enhance the CTL response | 239 to 242 °C (dec.) | –
4 | O=Cc1cc(OCc2ccc(C(=O)O)cc2)ccc1OCCCC(=O)O [Compound 44] | – | – | – | – | enhanced serum antibody production | 4N | 3N | 2N | enhance the CTL response | – | –
5 | O=Cc1cc(OCc2ccc(C(=O)O)cc2)ccc1O [Compound III, 4-[(3-formyl-4-hydroxyphenoxy)methyl]benzoic acid] | 5,000X | 4+ (“4+” is 31-40 Percent Specific Cell Lysis) | 2N | – | – | – | – | – | – | 222 to 224 °C (dec.) | interaction with the AGP adjuvant 99 on serum antibody (summary in words) [1, 13]: acts synergistically; adjuvant activity: serum antibody production (summary in words) ([1]; 1 μg rHBsAg + 1000 μg III, s.c. days 0 and 21, mice): enhanced serum antibody production; Gross Geometric Mean Serum Titers IgG [1, 7]: 5,000X; effect on the CTL adjuvant activity induced by 99 (summary in words) [2, 13]: additive effect; CTL response to the vaccine antigen (summary in words) ([2]; 1 μg rHBsAg + 1000 μg III, s.c. days 0 and 21, mice, 51Cr-release and CD8+, IFNγ+ flow cytometry): enhances the CTL response
6 | C[C@@H]1CC[C@@]2(OC1)O[C@H]1[C@@H](O)[C@H]3[C@@H]4CC[C@H]5C[C@@H](O[C@@H]6O[C@H](CO)[C@H](O[C@@H]7O[C@H](CO)[C@@H](O)[C@H](O[C@@H]8OC[C@@H](O)[C@H](O)[C@H]8O)[C@H]7O[C@@H]7O[C@H](CO)[C@H](O)[C@H](O[C@@H]8O[C@H](CO)[C@@H](O)[C@H](O)[C@H]8O)[C@H]7O)[C@H](O)[C@H]6O)[C@H](O)C[C@]5(C)[C@H]4CC[C@]3(C)[C@H]1[C@@H]2C [digitonin] | – | – | – | – | – | – | – | – | – | – | hemolytic activity towards red blood cells [6]: highly hemolytic
